Measured values as given in patent publication US20250320252A1 (The Scripps Research Institute, priority 2021, published 2025).
“And” between values parts separate entries of the source, which are not always exact repeats. Equal values may be shown once. Read-outs that look alike come from different tables or passages of the source.

How the values were obtained:
[1] = dog, in vivo
[2] = cynomolgus monkey, in vivo
[3] = Pharmacokinetics in CD-1 mouse, plasma concentration by LC-MS; type: in vivo; details: for clearance: mouse, read-out: Cl—pred
Method: The peptide plasma concentration at various time points was determined using LC-MS.

[4] = system: normal mice; assay: Oral glucose tolerance test 12 h after single SC dose in mice; type: in vivo, mouse; details: 10 nmol/kg S.C., 12 h before glucose
Method: Mice were fasted overnight prior to the oral glucose tolerance test (OGTT), and then dosed with peptide. After 12 h, 1 g of glucose solution per kg body weight was administered orally, and mouse tail blood glucose levels were measured before (0 min) and after glucose challenge for 90 minutes (with measurements at 15, 30, 60 and 90 minutes) (FIG. 16). The data were compared using the unpaired Student's t test. Where appropriate, data were compared using repeated measures or one-way analysis of variance, followed by the Student-Newman-Keuls post hoc test. Calculations for […] (mg/dL*min) were also analyzed and graphed in FIG. 16. […]. […].

[5] = system: wild-type mice; assay: Oral glucose tolerance test 2 h and 96 h post injection in wild-type mice; type: in vivo, mouse; details: 10 nmol/kg s.c., vs vehicle
Method: Data are means±SE, n=6 per group.
Oral glucose tolerance test (OGTT) Female Charles River CD-1 mice were fasted overnight and then administrated 150 μL of each peptide in PBS (pH=8.2) by i.v. or s.c. route.

[6] = biological target: T1, human GIPR (Homo sapiens, UniProt P48546); assay: In vitro receptor activation reporter assay (CRE-Luc), HEK293-GIPR-CRE; type: cell-based
T1 construct: expressed in transfected cells
T1 sequence (P48546 22-466): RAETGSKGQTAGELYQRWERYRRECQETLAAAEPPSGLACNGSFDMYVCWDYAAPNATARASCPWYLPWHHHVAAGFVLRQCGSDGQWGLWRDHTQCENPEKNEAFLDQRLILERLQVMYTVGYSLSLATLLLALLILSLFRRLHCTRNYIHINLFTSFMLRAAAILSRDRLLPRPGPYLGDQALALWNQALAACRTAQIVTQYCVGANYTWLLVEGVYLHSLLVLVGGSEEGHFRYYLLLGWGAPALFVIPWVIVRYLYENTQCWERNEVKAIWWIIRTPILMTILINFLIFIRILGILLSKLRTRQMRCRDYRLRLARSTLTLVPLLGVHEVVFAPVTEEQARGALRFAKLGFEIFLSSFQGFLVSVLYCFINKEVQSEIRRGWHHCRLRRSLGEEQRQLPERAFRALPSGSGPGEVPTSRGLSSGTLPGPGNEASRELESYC
Text: HEK293 cells were infected with lentivirus encoding firefly luciferase gene under the control of cAMP responsive element (CRE) promoter (Qiagen, The Netherlands) and then were selected using 1 g mL^−1 puromycin (Life Technologies, Carlsbad) for 1 week. The surviving cells (referred to as CRE-HEK293) were expanded and then transfected with a G418 selective mammalian expression plasmid encoding human GLP-1R or GIPR. In brief, GLP-1R or GIPR plasmid was transfected into CRE-HEK293 cells using Lipofectamine 2000 and selected with 400 g mL^−1 Geneticin (Life Technologies, Carlsbad, CA). Single colony stable cell line overexpressing CRE-luciferase and GLP-1R or GIPR (HEK293-GLP-1R-CRE or HEK293-GIPR-CRE) was then established for in vitro activity assay.
(§1) The EC50 of each peptide was determined using GraphPad Prism 6 software (GraphPad, San Diego, CA).

[7] = biological target: T2, human GLP-1R (Homo sapiens, UniProt P43220); assay: In vitro receptor activation reporter assay (CRE-Luc), HEK293-GLP-1R-CRE; type: cell-based; details: Table 8; read-out: EC50 [nM] GLP1R
T2 construct: expressed in transfected cells
T2 sequence (P43220 24-463): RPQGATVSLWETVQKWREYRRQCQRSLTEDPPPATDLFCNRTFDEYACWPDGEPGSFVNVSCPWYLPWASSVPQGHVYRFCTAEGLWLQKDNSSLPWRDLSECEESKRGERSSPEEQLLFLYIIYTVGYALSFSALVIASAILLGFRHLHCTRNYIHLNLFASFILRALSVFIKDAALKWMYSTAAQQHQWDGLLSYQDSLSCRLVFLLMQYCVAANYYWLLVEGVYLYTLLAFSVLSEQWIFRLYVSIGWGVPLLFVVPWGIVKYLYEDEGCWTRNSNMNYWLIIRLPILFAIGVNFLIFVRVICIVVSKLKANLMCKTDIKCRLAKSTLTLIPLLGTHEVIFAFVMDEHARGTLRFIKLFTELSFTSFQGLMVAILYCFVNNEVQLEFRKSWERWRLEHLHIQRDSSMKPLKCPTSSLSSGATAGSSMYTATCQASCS
Method: as §1
HEK293 cells were infected with lentivirus encoding firefly luciferase gene under the control of cAMP responsive element (CRE) promoter (Qiagen, The Netherlands) and then were selected using 1 g/mL puromycin (Life Technologies, Carlsbad) for 1 week. The surviving cells (referred to as CRE-HEK293) were expanded and then transfected with a G418 selective mammalian expression plasmid encoding human GLP-1R. In brief, GLP-1R plasmid was transfected into CRE-HEK293 cells using Lipofectamine 2000 and selected with 400 g/mL Geneticin (Life Technologies, Carlsbad, CA). Single colony stable cell line overexpressing CRE-luciferase and GLP1R was then established for in vitro activity assay.

[8] = 1 mg/kg I.V., individual animals
[9] = 1 mg/kg I.V., individual animals, 1 mg/kg
[10] = 1 mg/kg S.C., individual animals
[11] = 1 mg/kg S.C., individual animals, 1 mg/kg
[12] = in vivo, iv, 1 mg/kg, 1 mg/kg I.V., individual animals

CC[C@H](C)[C@H](NC(=O)[C@H](CC(C)C)NC(=O)[C@H](Cc1c[nH]c2ccccc12)NC(=O)[C@@H]1CSCC(=O)NCCN(C(=O)CCC(=O)NCCOCCOCCC(=O)NCCOCCOCCC(=O)NCCCC[C@H](NC(=O)CCCCCCCCCCCCCCCCCCC(=O)O)C(=O)O)CCNC(=O)CSC[C@H](NC(=O)[C@H](CCCCN)NC(=O)[C@H](CC(=O)O)NC(=O)[C@H](CC(C)C)NC(=O)[C@H](Cc2ccc(O)cc2)NC(=O)[C@@H](NC(=O)[C@H](CO)NC(=O)[C@H](Cc2ccc(O)cc2)NC(=O)[C@H](CC(=O)O)NC(=O)[C@H](CO)NC(=O)[C@@H](NC(=O)[C@H](Cc2ccccc2)NC(=O)[C@@H](NC(=O)CNC(=O)[C@H](CCC(=O)O)NC(=O)C(C)(C)NC(=O)[C@@H](N)Cc2ccc(O)cc2)[C@@H](C)O)[C@@H](C)O)[C@@H](C)CC)C(=O)N[C@@H](C)C(=O)N[C@@H](C)C(=O)NC(C)(C)C(=O)N[C@@H](CCC(=O)O)C(=O)N[C@@H](Cc2ccccc2)C(=O)N[C@@H](C(C)C)C(=O)N1)C(=O)N[C@@H](C)C(=O)NCC(=O)NCC(=O)N1CCC[C@H]1C(=O)N[C@@H](CO)C(=O)N[C@@H](CO)C(=O)NCC(=O)N[C@@H](C)C(=O)N1CCC[C@H]1C(=O)N1CCC[C@H]1C(=O)N1CCC[C@H]1C(=O)N[C@@H](CO)C(N)=O [mCMV268, YAibEGT-FTSDY-SIYLD-KXAAAib-EFVXW-LIAGG-PSSGA-PPPS-NH2 (where each X is C)]
Bioavailability ([1]; po): 0.27%, 0.27%,

CC[C@H](C)[C@H](NC(=O)[C@H](CC(C)C)NC(=O)[C@H](Cc1c[nH]c2ccccc12)NC(=O)[C@@H]1CSCC(=O)NCCN(C(=O)CCC(=O)NCCOCCOCCC(=O)NCCOCCOCCC(=O)NCCCC[C@H](NC(=O)CCCCCCCCCCCCCCCCC(=O)O)C(=O)O)CCNC(=O)CSC[C@H](NC(=O)[C@H](CCCCN)NC(=O)[C@H](CC(=O)O)NC(=O)[C@H](CC(C)C)NC(=O)[C@H](Cc2ccc(O)cc2)NC(=O)[C@@H](NC(=O)[C@H](CO)NC(=O)[C@H](Cc2ccc(O)cc2)NC(=O)[C@H](CC(=O)O)NC(=O)[C@H](CO)NC(=O)[C@@H](NC(=O)[C@H](Cc2ccccc2)NC(=O)[C@@H](NC(=O)CNC(=O)[C@H](CCC(=O)O)NC(=O)C(C)(C)NC(=O)[C@@H](N)Cc2ccc(O)cc2)[C@@H](C)O)[C@@H](C)O)[C@@H](C)CC)C(=O)N[C@@H](C)C(=O)N[C@@H](C)C(=O)NC(C)(C)C(=O)N[C@@H](CCC(=O)O)C(=O)N[C@@H](Cc2ccccc2)C(=O)N[C@@H](C(C)C)C(=O)N1)C(=O)N[C@@H](C)C(=O)NCC(=O)NCC(=O)N1CCC[C@H]1C(=O)N[C@@H](CO)C(=O)N[C@@H](CO)C(=O)NCC(=O)N[C@@H](C)C(=O)N1CCC[C@H]1C(=O)N1CCC[C@H]1C(=O)N1CCC[C@H]1C(=O)N[C@@H](CO)C(N)=O [mCMZ371, YAibEGT-FTSDY-SIYLD-KXAAAib-EFVXW-LIAGG-PSSGA-PPPS-NH2 (where each X is C)]
t1/2 in cynomolgus monkeys [2]: long t1/2
Tlast ([2]; iv): 240 h
Tlast ([2]; sc): 240 h
AUC compared with mCMZ370 ([3]; 1 mg/kg I.V. or S.C.): significantly larger area under the curve
half-life compared with mCMZ370 ([3]; 1 mg/kg I.V. or S.C.): longer half-life
Tlast [3, 8]: 72 h
AUC—%Extrap—pred [3, 9]: 0.75%
Cl—pred [3, 9]: 0.046 mL/min/kg and 0.041 mL/min/kg
Tlast [3, 10]: 72 h
Cl—Fpred [3, 11]: 0.12 mL/min/kg and 0.08 mL/min/kg and 0.24 mL/min/kg
V—F—pred [3, 11]: 0.06 L/kg and 0.12 L/kg and 0.08 L/kg
Vd ([3]; in vivo, iv, 1 mg/kg I.V., individual animals, read-out: Vss—pred): 0.054 L/kg
clearance [3, 12]: 0.048 mL/min/kg
t1/2 in dogs [1]: long t1/2
Tlast ([1]; iv): 240 h
Tlast ([1]; sc): 240 h

CC[C@H](C)[C@H](NC(=O)[C@H](CC(C)C)NC(=O)[C@H](Cc1c[nH]c2ccccc12)NC(=O)[C@H](CC(N)=O)NC(=O)[C@@H](NC(=O)[C@H](Cc1ccccc1)NC(=O)[C@@H]1CSCC(=O)NCCN(C(=O)CCC(=O)NCCOCCOCCC(=O)NCCOCCOCCC(=O)NCCCC[C@H](NC(=O)CCCCCCCCCCCCCCCCC(=O)O)C(=O)O)CCNC(=O)CSC[C@H](NC(=O)[C@H](Cc2ccc(O)cc2)NC(=O)[C@@H](NC(=O)[C@H](CO)NC(=O)[C@H](Cc2ccc(O)cc2)NC(=O)[C@H](CC(=O)O)NC(=O)[C@H](CO)NC(=O)[C@@H](NC(=O)[C@H](Cc2ccccc2)NC(=O)[C@@H](NC(=O)CNC(=O)[C@H](CCC(=O)O)NC(=O)C(C)(C)NC(=O)[C@@H](N)Cc2ccc(O)cc2)[C@@H](C)O)[C@@H](C)O)[C@@H](C)CC)C(=O)N[C@@H](CC(=O)O)C(=O)N[C@@H](CCCCN)C(=O)N[C@@H](CCC(N)=O)C(=O)N[C@@H](C)C(=O)N[C@@H](C)C(=O)NC(C)(C)C(=O)N1)C(C)C)C(=O)N[C@@H](C)C(=O)NCC(=O)NCC(=O)N1CCC[C@H]1C(=O)N[C@@H](CO)C(=O)N[C@@H](CO)C(=O)NCC(=O)N[C@@H](C)C(=O)N1CCC[C@H]1C(=O)N1CCC[C@H]1C(=O)N1CCC[C@H]1C(=O)N[C@@H](CO)C(N)=O [mCMZ370, YAibEGT-FTSDY-SIYXD-KQAAAib-XFVNW-LIAGG-PSSGA-PPPS-NH2 (where each X is C)]
Tlast [3, 8]: 72 h
AUC—%Extrap—pred [3, 9]: 0.39% and 0.38% and 0.6%
Cl—pred [3, 9]: 0.162 mL/min/kg
Vz—pred [3, 9]: 0.099 L/kg
Tlast [3, 10]: 72 h
AUC—%Extrap—pred [3, 11]: 0.26% and 0.31% and 0.19%
AUMC—%Extrap—pred [3, 11]: 0.99%
Cl—Fpred [3, 11]: 0.24 mL/min/kg and 0.21 mL/min/kg and 0.06 mL/min/kg
V—F—pred [3, 11]: 0.2 L/kg and 0.15 L/kg and 0.13 L/kg
clearance [3, 12]: 0.112 mL/min/kg

Semaglutide
effects on glucose tolerance at 10 nmol/kg [4]: indistinguishable effects on glucose tolerance
glucose tolerance (OGTT) 96 h after administration [5]: did not exhibit any improvement over the vehicle

CC[C@H](C)[C@H](NC(=O)[C@H](CO)NC(=O)[C@H](Cc1ccc(O)cc1)NC(=O)[C@H](CC(=O)O)NC(=O)[C@H](CO)NC(=O)[C@@H](NC(=O)[C@H](Cc1ccccc1)NC(=O)[C@@H](NC(=O)CNC(=O)[C@H](CCC(=O)O)NC(=O)C(C)(C)NC(=O)[C@@H](N)Cc1ccc(O)cc1)[C@@H](C)O)[C@@H](C)O)C(=O)N[C@@H](Cc1ccc(O)cc1)C(=O)N[C@H]1CSCC(=O)NCCN(C(=O)CCC(=O)NCCOCCOCCC(=O)NCCOCCOCCC(=O)NCCCC[C@H](NC(=O)CCCCCCCCCCCCCCCCCCC(=O)O)C(=O)O)CCNC(=O)CSC[C@@H](C(=O)N[C@@H](Cc2ccccc2)C(=O)N[C@H](C(=O)N[C@@H](CC(N)=O)C(=O)N[C@@H](Cc2c[nH]c3ccccc23)C(=O)N[C@@H](CC(C)C)C(=O)N[C@@H](CC(C)C)C(=O)N[C@@H](C)C(=O)NCC(=O)NCC(=O)N2CCC[C@H]2C(=O)N[C@@H](CO)C(=O)N[C@@H](CO)C(=O)NCC(=O)N[C@@H](C)C(=O)N2CCC[C@H]2C(=O)N2CCC[C@H]2C(=O)N2CCC[C@H]2C(=O)N[C@@H](CO)C(N)=O)C(C)C)NC(=O)C(C)(C)NC(=O)[C@H](C)NC(=O)[C@H](C)NC(=O)[C@H](CCC(N)=O)NC(=O)[C@H](CCCCN)NC(=O)[C@H](CC(=O)O)NC1=O [C(14-21) - C20L5A, YAibEGT-FTSDY-SIYXD-KQAAAib-XFVNW-LLAGG-PSSGA-PPPS-NH2 (where each X is C)]
EC50 ([6]; Table 8, read-out: EC50 [nM] GIPR): 0.05 nM
EC50 ([6]; unnumbered table (Table 10), average of runs, read-out: GIPR (nM) [EC50] average): 0.05 nM
EC50 ([6]; unnumbered table (Table 10), run 02/19, read-out: GIPR (nM) [EC50] 02/19): 0.07 nM
EC50 ([6]; unnumbered table (Table 10), run 03/25, read-out: GIPR (nM) [EC50] 03/25): 0.04 nM
EC50 ([6]; unnumbered table (Table 10), run 03/26, read-out: GIPR (nM) [EC50] 03/26): 0.04 nM
EC50 [7]: 0.2 nM
